# Source: patent publication US20250171437A1 (Agios Pharmaceuticals,Inc., priority 2022, published 2025)
# Biological target: T1, human PAH with the R408W mutation (A375 R408W cells) (Homo sapiens, UniProt P00439, R408W)
# T1 construct: expressed in transfected cells
# T1 sequence (P00439 1-452 R408W): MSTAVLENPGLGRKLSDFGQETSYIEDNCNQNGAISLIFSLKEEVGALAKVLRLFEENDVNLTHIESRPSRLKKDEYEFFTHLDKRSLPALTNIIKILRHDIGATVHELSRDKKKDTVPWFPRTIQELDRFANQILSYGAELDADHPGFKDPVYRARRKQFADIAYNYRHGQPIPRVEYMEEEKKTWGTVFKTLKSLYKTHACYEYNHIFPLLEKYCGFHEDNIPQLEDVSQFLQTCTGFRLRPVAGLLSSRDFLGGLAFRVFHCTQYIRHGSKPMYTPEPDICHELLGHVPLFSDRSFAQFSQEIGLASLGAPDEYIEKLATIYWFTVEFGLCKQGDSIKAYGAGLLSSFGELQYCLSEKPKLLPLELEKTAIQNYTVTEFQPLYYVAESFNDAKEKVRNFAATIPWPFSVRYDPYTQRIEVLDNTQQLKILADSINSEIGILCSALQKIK
# Assay: Cell Based Phenylalanine Flux Assay
# Details: A375 R408W cells; 24 hrs with compound, then 20 μM sepiapterin and 800 μM 13C9,15N-Phenylalanine for 4 hours; 13C-Tyrosine by LC-MS; average where tested multiple times
# Procedure, shortened: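 A375 cells stably expressing human PAH R408W treated 24 h at 37° C with a 10-point 2-fold dose curve in duplicate, 0.5% DMSO. Then 20 μM sepiapterin and 800 μM 13C9,15N-Phe added for 4 h; 13C-Tyr in media measured by LC-MS to give AC50.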
row,AC50 [nM],SMILES
1,1000 to 5000,"Cn1nc(Br)nc1C(=O)N1CCc2[nH]cnc2[C@@H]1c1nc2c(F)cccc2o1 [Example 472, (R)-(3-bromo-1-methyl-1H-1,2,4-triazol-5-yl)(4-(4-fluorobenzo[d]oxazol-2-yl)-6,7-dihydro-1H-imidazo[4,5-c]pyridin-5(4H)-yl)methanone]"
2,500 to 1000,"Cn1nc(Br)nc1C(=O)N1CCc2[nH]cnc2[C@H]1c1nc2cccc(F)c2o1 [Example 473, (S)-(3-bromo-1-methyl-1H-1,2,4-triazol-5-yl)(4-(7-fluorobenzo[d]oxazol-2-yl)-6,7-dihydro-1H-imidazo[4,5-c]pyridin-5(4H)-yl)methanone]"
3,1000 to 5000,"Cn1nc(Br)nc1C(=O)N1CCc2[nH]cnc2[C@@H]1c1nc2cccc(F)c2o1 [Example 474, (R)-(3-bromo-1-methyl-1H-1,2,4-triazol-5-yl)(4-(7-fluorobenzo[d]oxazol-2-yl)-6,7-dihydro-1H-imidazo[4,5-c]pyridin-5(4H)-yl)methanone]"
4,≤ 500,"CN1CCN(c2ccc3c(C(=O)N4CCc5[nH]cnc5[C@H]4c4nc5c(F)cccc5o4)cnn3c2)CC1 [Example 475, (S)-(4-(4-fluorobenzo[d]oxazol-2-yl)-6,7-dihydro-1H-imidazo[4,5-c]pyridin-5(4H)-yl)(6-(4-methylpiperazin-1-yl)pyrazolo[1,5-a]pyridin-3-yl)methanone]"
5,1000 to 5000,"CN1CCN(c2ccc3c(C(=O)N4CCc5[nH]cnc5[C@@H]4c4nc5c(F)cccc5o4)cnn3c2)CC1 [Example 476, (R)-(4-(4-fluorobenzo[d]oxazol-2-yl)-6,7-dihydro-1H-imidazo[4,5-c]pyridin-5(4H)-yl)(6-(4-methylpiperazin-1-yl)pyrazolo[1,5-a]pyridin-3-yl)methanone]"
6,≤ 500,"O=C(c1cnn2cc(N3CCC(F)CC3)ccc12)N1CCc2[nH]cnc2[C@H]1c1nc2c(F)cccc2o1 [Example 477, (S)-(4-(4-fluorobenzo[d]oxazol-2-yl)-6,7-dihydro-1H-imidazo[4,5-c]pyridin-5(4H)-yl)(6-(4-fluoropiperidin-1-yl)pyrazolo[1,5-a]pyridin-3-yl)methanone]"
7,≥ 5000,"O=C(c1cnn2cc(N3CCC(F)CC3)ccc12)N1CCc2[nH]cnc2[C@@H]1c1nc2c(F)cccc2o1 [Example 478, (R)-(4-(4-fluorobenzo[d]oxazol-2-yl)-6,7-dihydro-1H-imidazo[4,5-c]pyridin-5(4H)-yl)(6-(4-fluoropiperidin-1-yl)pyrazolo[1,5-a]pyridin-3-yl)methanone]"
8,500 to 1000,"Cc1cccc2oc([C@H]3c4nc[nH]c4CCN3C(=O)c3nnc(-c4cnn(C)c4)o3)nc12 [Example 479, (R)-(5-(1-methyl-1H-pyrazol-4-yl)-1,3,4-oxadiazol-2-yl)(4-(4-methylbenzo[d]oxazol-2-yl)-6,7-dihydro-1H-imidazo[4,5-c]pyridin-5(4H)-yl)methanone]"
9,≤ 500,"Cc1cccc2oc([C@@H]3c4nc[nH]c4CCN3C(=O)c3nnc(-c4cnn(C)c4)o3)nc12 [Example 480, (S)-(5-(1-methyl-1H-pyrazol-4-yl)-1,3,4-oxadiazol-2-yl)(4-(4-methylbenzo[d]oxazol-2-yl)-6,7-dihydro-1H-imidazo[4,5-c]pyridin-5(4H)-yl)methanone]"
10,500 to 1000,"Cc1cccc2oc([C@H]3c4nc[nH]c4CCN3C(=O)c3nnc(-c4ccccn4)o3)nc12 [Example 481, (R)-(4-(4-methylbenzo[d]oxazol-2-yl)-6,7-dihydro-1H-imidazo[4,5-c]pyridin-5(4H)-yl)(5-(pyridin-2-yl)-1,3,4-oxadiazol-2-yl)methanone]"
11,≤ 500,"Cc1cccc2oc([C@@H]3c4nc[nH]c4CCN3C(=O)c3nnc(-c4ccccn4)o3)nc12 [Example 482, (S)-(4-(4-methylbenzo[d]oxazol-2-yl)-6,7-dihydro-1H-imidazo[4,5-c]pyridin-5(4H)-yl)(5-(pyridin-2-yl)-1,3,4-oxadiazol-2-yl)methanone]"

# Continued, compound first:
row,SMILES,AC50 [nM]
1,"COc1cccc2nc([C@@H]3c4nc[nH]c4CCN3C(=O)c3ocnc3C(F)F)oc12 [Example 457, (S)-(4-(difluoromethyl)oxazol-5-yl)(4-(7-methoxybenzo[d]oxazol-2-yl)-6,7-dihydro-1H-imidazo[4,5-c]pyridin-5(4H)-yl)methanone]",≤ 500
2,"COc1cccc2nc([C@H]3c4nc[nH]c4CCN3C(=O)c3ocnc3C(F)F)oc12 [Example 458, (R)-(4-(difluoromethyl)oxazol-5-yl)(4-(7-methoxybenzo[d]oxazol-2-yl)-6,7-dihydro-1H-imidazo[4,5-c]pyridin-5(4H)-yl)methanone]",≤ 500
3,"CC(C)(O)c1nc(C(F)F)c(C(=O)N2CCc3[nH]cnc3[C@@H]2c2nc3cccc(Br)c3o2)o1 [Example 459, (R)-(4-(7-bromobenzo[d]oxazol-2-yl)-6,7-dihydro-1H-imidazo[4,5-c]pyridin-5(4H)-yl)(4-(difluoromethyl)-2-(2-hydroxypropan-2-yl)oxazol-5-yl)methanone]",≤ 500
4,"CC(C)(O)c1nc(C(F)F)c(C(=O)N2CCc3[nH]cnc3[C@H]2c2nc3cccc(Br)c3o2)o1 [Example 460, (S)-(4-(7-bromobenzo[d]oxazol-2-yl)-6,7-dihydro-1H-imidazo[4,5-c]pyridin-5(4H)-yl)(4-(difluoromethyl)-2-(2-hydroxypropan-2-yl)oxazol-5-yl)methanone]",≤ 500
5,"O=C(c1ocnc1C(F)F)N1CCc2[nH]cnc2[C@H]1c1nc2cccc(Br)c2o1 [Example 461, (S)-(4-(7-bromobenzo[d]oxazol-2-yl)-6,7-dihydro-1H-imidazo[4,5-c]pyridin-5(4H)-yl)(4-(difluoromethyl)oxazol-5-yl)methanone]",≤ 500
6,"O=C(c1ocnc1C(F)F)N1CCc2[nH]cnc2[C@@H]1c1nc2cccc(Br)c2o1 [Example 462, (R)-(4-(7-bromobenzo[d]oxazol-2-yl)-6,7-dihydro-1H-imidazo[4,5-c]pyridin-5(4H)-yl)(4-(difluoromethyl)oxazol-5-yl)methanone]",≤ 500
7,"CC(C)(O)c1nc(C(F)F)c(C(=O)N2CCc3[nH]cnc3[C@H]2c2nc3c(C(F)(F)F)cccc3o2)o1 [Example 463, (S)-(4-(difluoromethyl)-2-(2-hydroxypropan-2-yl)oxazol-5-yl)(4-(4-(trifluoromethyl)benzo[d]oxazol-2-yl)-6,7-dihydro-1H-imidazo[4,5-c]pyridin-5(4H)-yl)methanone]",≤ 500
8,"CC(C)(O)c1nc(C(F)F)c(C(=O)N2CCc3[nH]cnc3[C@@H]2c2nc3c(C(F)(F)F)cccc3o2)o1 [Example 464, (R)-(4-(difluoromethyl)-2-(2-hydroxypropan-2-yl)oxazol-5-yl)(4-(4-(trifluoromethyl)benzo[d]oxazol-2-yl)-6,7-dihydro-1H-imidazo[4,5-c]pyridin-5(4H)-yl)methanone]",500 to 1000
9,"O=C(c1ocnc1C(F)F)N1CCc2[nH]cnc2[C@H]1c1nc2c(C(F)(F)F)cccc2o1 [Example 465, (S)-(4-(difluoromethyl)oxazol-5-yl)(4-(4-(trifluoromethyl)benzo[d]oxazol-2-yl)-6,7-dihydro-1H-imidazo[4,5-c]pyridin-5(4H)-yl)methanone]",≤ 500
10,"O=C(c1ocnc1C(F)F)N1CCc2[nH]cnc2[C@@H]1c1nc2c(C(F)(F)F)cccc2o1 [Example 466, (R)-(4-(difluoromethyl)oxazol-5-yl)(4-(4-(trifluoromethyl)benzo[d]oxazol-2-yl)-6,7-dihydro-1H-imidazo[4,5-c]pyridin-5(4H)-yl)methanone]",500 to 1000
11,"O=C(c1ocnc1C(F)F)N1CCc2[nH]cnc2[C@H]1c1nc2ccccc2o1 [Example 467, (S)-(4-(benzo[d]oxazol-2-yl)-6,7-dihydro-1H-imidazo[4,5-c]pyridin-5(4H)-yl)(4-(difluoromethyl)oxazol-5-yl)methanone]",≤ 500
12,"O=C(c1ocnc1C(F)F)N1CCc2[nH]cnc2[C@@H]1c1nc2ccccc2o1 [Example 468, (R)-(4-(benzo[d]oxazol-2-yl)-6,7-dihydro-1H-imidazo[4,5-c]pyridin-5(4H)-yl)(4-(difluoromethyl)oxazol-5-yl)methanone]",500 to 1000
13,"CC(C)(O)c1nc(C(F)F)c(C(=O)N2CCc3[nH]cnc3[C@@H]2c2nc3ccccc3o2)o1 [Example 469, (R)-(4-(benzo[d]oxazol-2-yl)-6,7-dihydro-1H-imidazo[4,5-c]pyridin-5(4H)-yl)(4-(difluoromethyl)-2-(2-hydroxypropan-2-yl)oxazol-5-yl)methanone]",1000 to 5000
14,"CC(C)(O)c1nc(C(F)F)c(C(=O)N2CCc3[nH]cnc3[C@H]2c2nc3ccccc3o2)o1 [Example 470, (S)-(4-(benzo[d]oxazol-2-yl)-6,7-dihydro-1H-imidazo[4,5-c]pyridin-5(4H)-yl)(4-(difluoromethyl)-2-(2-hydroxypropan-2-yl)oxazol-5-yl)methanone]",≤ 500
15,"Cn1nc(Br)nc1C(=O)N1CCc2[nH]cnc2[C@H]1c1nc2c(F)cccc2o1 [Example 471, (S)-(3-bromo-1-methyl-1H-1,2,4-triazol-5-yl)(4-(4-fluorobenzo[d]oxazol-2-yl)-6,7-dihydro-1H-imidazo[4,5-c]pyridin-5(4H)-yl)methanone]",500 to 1000
